PMC6985722 (Antimicrobial Agents and Chemotherapy, 2020)

Key:
RSV-A Memphis-37b [1] = assay: RSV human challenge study: viral load in nasal wash by quantitative culture; type: in vivo
Description: (§1) Subjects were screened outside the RSV season for eligibility, including measurement of RSV-A Memphis-37b-specific neutralizing antibody titer, ≤90 days before virus challenge. Eligible subjects were admitted to the quarantine unit on day −2 or day −1 and were inoculated intranasally on day 0 with the challenge virus, RSV-A Memphis-37b (4 log10 PFU/ml, given as one 0.4-ml installation per naris), as previously described ([26]). Nasal wash sampling every 12 h for confirmation of RSV infection by qualitative integrated cycler PCR ([12], [19]) began on the morning of day 2. Treatment began 12 h (±1 h) after collection of a nasal wash sample confirming RSV infection or on the evening of day 5 if RSV infection remained unconfirmed by the morning of day 5.
(§2) The study comprised two consecutive cohorts. […] Subjects were discharged on day 12 if nasopharyngeal swab samples tested negative by RSV rapid antigen assay (QuickVue RSV test; Quidel, San Diego, CA, USA). If such tests were positive or if a subject remained symptomatic, quarantine was extended to allow further observation. All subjects were evaluated on day 28 (±3 days).
(§3) Twice-daily collection of nasal wash samples allowed measurement of viral load via RT-qPCR and quantitative culture. RT-qPCR results were reported as PFUe/ml when the standard curve included in each assay contained a known infectious amount (PFU) of RSV, as described previously ([30]). Subjects reported the occurrence and severity of symptoms three times daily using a 10-item subject symptom diary card as previously reported ([12]) (see Supplemental Methods). Throughout the quarantine period, used tissues were collected and weighed daily, and total nasal mucus weight was recorded. PK assessments were based on venous blood samples. Safety assessments included measurement of vital signs, standard 12-lead ECG recordings, spirometry, a complete physical examination, and a respiratory-directed physical examination. AEs were monitored daily, coded according to the Medical Dictionary for Regulatory Activities Version 20.0, and graded according to the National Cancer Institute Common Terminology Criteria for Adverse Events Version 4.0 (see Supplemental Methods for further details).
(§4) The primary efficacy endpoint was AUC for RSV viral load, as measured by RT-qPCR, in nasal wash samples taken twice daily from just before the first dose until discharge (day 12). Viral load data were provided as log10 PFUe/ml; AUC (log10 PFUe/ml · h) was calculated using the trapezoid rule. Secondary efficacy endpoints related to viral load were AUC of RSV viral load, as assessed by quantitative culture, and the following measures, which were each assessed using both RT-qPCR and quantitative culture: peak viral load, time to peak viral load, and time to <1 log10 (for RT-qPCR) or undetectable (for quantitative culture) viral load (considered to occur at the first confirmed undetectable assessment after which no further virus was detected). Secondary efficacy endpoints related to clinical symptoms included AUC total symptom score; peak total symptom score; time to peak total symptom score; and the total weight of nasal mucus produced. Other secondary outcomes were safety, PK, and sequence detection of viral variants (see Supplemental Methods).
The primary efficacy analysis population (the ITT-I analysis set) comprised all randomized subjects who received challenge virus and at least one dose of study drug and met the criterion for laboratory-confirmed RSV infection (presence of detectable RSV). Sensitivity analyses were based on a subset of the ITT-I population who had first detectable RSV infection prior to study drug administration (the ITT-A analysis set) and a fixed time period of 6.5 days (comprising data for all subjects for 6.5 days of evaluation after the first dose, regardless of the staggered commencement of dosing). […]

RSV-A Memphis-37b [2] = assay: RSV human challenge study: disease severity (total symptom score, nasal mucus weight); type: in vivo
Description: as §1, §2, §3, §4
All statistical analyses were performed using two-sided testing. Student’s t tests were performed for normally distributed data with a constant variance; otherwise, the Satterthwaite t test or nonparametric tests were used. For the mucus weight analysis, the least-squares mean was calculated from a mixed model with repeated measures, adjusted for baseline mucus weight and treatment group as covariates and subject as a random effect.

[3] = test system: RSV-B (panel of 10 clinical strains); assay: In vitro susceptibility of RSV by plaque assay, RSV-B; type: cell-based; conditions: human respiratory syncytial virus
Description: Previous RSV challenge studies achieved antiviral efficacy with peripheral blood trough exposure levels over 3× the protein binding-adjusted in vitro EC90 ([12]). Based on the phase 1 PK data, this level of exposure was predicted to be achieved on or after the first dose in the majority of subjects with a 200-mg dose and to be met or exceeded on or after the first dose in all subjects with a 350-mg dose. The in vitro EC90 was determined using a panel of clinical isolates of RSV (Table S7).
EC50 range (nM) EC90 range (nM)
EC50 and EC 90 were determined by plaque assay.
EC50, 50% effective concentration; EC90, 90% effective concentration; RSV, respiratory

RSV-B isolates = test system: RSV-B isolates; set-up: method as in ref 16 = [16]; 16. Cockerill GS , Bedernjak A , Brookes D , Dowey R , Harland R , Johnson SM , Mathews N , Paradowski M , Peeples M , Scott C , Steadman M , Taylor G , Thom M , Thomas E , Ward SE , Watterson D , You; conditions: n = 16 isolates; cited from earlier work
[4] = 76 healthy adult males; single and multiple ascending dose; cited from earlier work
[5] = 200 mg, ITT-I, fixed time period of 6.5 days
[6] = 350 mg, ITT-A, fixed time period of 6.5 days
[7] = 350 mg, ITT-I, fixed time period of 6.5 days

## NCc1ccc2c(c1)nc(CN1C(=O)C3(CC3)c3ccc(F)cc31)n2CCCC(F)(F)F [RV521]
RSV-A Memphis-37b [1]; 200 mg, ITT-A
  AUC of viral load (quantitative culture), mean (SE): 53.89 (15.47) hours x log10 PFU/mL
  AUC of viral load (quantitative culture), reduction in mean vs placebo: 71.47%
  Peak viral load (quantitative culture), mean (SE): 1.82 (0.41) log10 PFU/mL
  Time to peak viral load (quantitative culture), mean (SE): 3.53 (0.84) days
  Time to undetectable viral load (quantitative culture), median (Q1, Q3): 3 (2, 3.5) days
RSV-A Memphis-37b [1]; 200 mg, ITT-I
  AUC of viral load (quantitative culture), mean (SE): 50.98 (14.89) log10 PFU/ml · h
  AUC of viral load (quantitative culture), reduction in mean vs that of placebo: 68.60%
  Peak viral load (quantitative culture), mean (SE): 1.72 (0.40) log10 PFU/ml
  Time to peak viral load (quantitative culture), mean (SE): 3.69 (0.81) days
  Time to undetectable viral load (quantitative culture), median (Q1, Q3): 3.0 (2.0, 3.5) (n = 11) days
  Mean viral load at time of peak viral load in placebo arm (day 2; quantitative culture), mean (SE): 0.88 (0.30) log10 PFU/ml
RSV-A Memphis-37b [1]; [5]
  AUC of viral load (quantitative culture), mean (SE): 50.98 (14.89) log10 PFU/mL x hours
  AUC of viral load (quantitative culture), reduction in mean vs placebo: 68.60%
RSV-A Memphis-37b [1]; 350 mg, ITT-A
  AUC of viral load (quantitative culture), mean (SE): 43.76 (14.73) hours x log10 PFU/mL
  AUC of viral load (quantitative culture), reduction in mean vs placebo: 76.83%
  Peak viral load (quantitative culture), mean (SE): 1.81 (0.44) log10 PFU/mL
  Time to peak viral load (quantitative culture), mean (SE): 3.47 (0.87) days
  Time to undetectable viral load (quantitative culture), median (Q1, Q3): 2.5 (2, 2.5) days
RSV-A Memphis-37b [1]; [6]
  AUC of viral load (quantitative culture), mean (SE): 43.76 (14.73) log10 PFU/mL x hours
  AUC of viral load (quantitative culture), reduction in mean vs placebo: 76.83%
RSV-A Memphis-37b [1]; 350 mg, ITT-I
  AUC of viral load (quantitative culture), mean (SE): 38.29 (13.36) log10 PFU/ml · h
  AUC of viral load (quantitative culture), reduction in mean vs that of placebo: 76.42%
  Peak viral load (quantitative culture), mean (SE): 1.58 (0.41) log10 PFU/ml
  Time to peak viral load (quantitative culture), mean (SE): 3.85 (0.80) days
  Time to undetectable viral load (quantitative culture), median (Q1, Q3): 2.5 (2.0, 2.5) (n = 9) days
  Mean viral load at time of peak viral load in placebo arm (day 2; quantitative culture), mean (SE): 0.71 (0.32) log10 PFU/ml
RSV-A Memphis-37b [1]; [7]
  AUC of viral load (quantitative culture), mean (SE): 38.29 (13.36) log10 PFU/mL x hours
  AUC of viral load (quantitative culture), reduction in mean vs placebo: 76.42%
RSV-A Memphis-37b [2]; 200 mg, ITT-A
  AUC of total symptom score, mean (SE): 117.9 (35.26) score x hours
  AUC of total symptom score, reduction in mean vs placebo: 73.06%
  Daily nasal mucus weight, LS mean: 0.32 g
  Peak total symptom score, mean (SE): 2.5 (0.49)
  Time to peak total symptom score, mean (SE): 1.82 (0.67) days
  Time to resolution from peak total symptom score, mean (SE): 2.73 (0.39) days
RSV-A Memphis-37b [2]; 200 mg, ITT-A, fixed time period of 6.5 days
  AUC of total symptom score, mean (SE): 117.41 (35.26) score x hours
RSV-A Memphis-37b [2]; 200 mg, ITT-I
  AUC total symptom score, mean (SE): 111.35 (33.88) score × hours
  Daily nasal mucus weight, LS mean: 0.33 g
  Time to peak total symptom score, mean (SE): 2.08 (0.68) days
RSV-A Memphis-37b [2]; [5]
  AUC of total symptom score, mean (SE): 111.35 (33.88) score x hours
RSV-A Memphis-37b [2]; 350 mg, ITT-A
  AUC of total symptom score, mean (SE): 92.98 (26.81) score x hours
  AUC of total symptom score, reduction in mean vs placebo: 78.75%
  Daily nasal mucus weight, LS mean: 0.26 g
  Peak total symptom score, mean (SE): 2.1 (0.49)
  Time to peak total symptom score, mean (SE): 1.26 (0.55) days
  Time to resolution from peak total symptom score, mean (SE): 2.44 (0.43) days
RSV-A Memphis-37b [2]; [6]
  AUC of total symptom score, mean (SE): 92.98 (26.81) score x hours
RSV-A Memphis-37b [2]; 350 mg, ITT-I
  AUC total symptom score, mean (SE): 82.41 (24.45) score × hours
  Daily nasal mucus weight, LS mean: 0.27 g
  Time to peak total symptom score, mean (SE): 1.56 (0.57) days
RSV-A Memphis-37b [2]; [7]
  AUC of total symptom score, mean (SE): 82.41 (24.45) score x hours
[3]; read-out: EC50 range
  EC50: 0.4 to 1.4 nM
[3]; read-out: EC90 range
  EC90: 2 to 10.4 nM
RSV-B isolates
  IC50: 1 nM
[4]
  Tolerability: well tolerated
